# Results: EP0908457B1, “3-(1,2-benzisothiazol- and isoxazol-5-Y1)-2,4(1H,3H)-pyrimidinedione or thione and 3-(1,2-benzisothiazol- and isoxazol-5-y1)-4(3H)-pyrimidinone or thione herbicidal agents” (BASF AKTIENGESELLSCHAFT, priority 1997, dated 1999)
# What was measured:
# [1] = test system: Oryza sativa, (L.) Tebonnet; experiment: Rice tolerance to post-transplant applications under flooded paddy conditions (Example 187), ORYSAT (Rice, Tebonnet); conditions: for ORYSAT herbicidal effect rating / herbicidal effect rating, ORYSAT (rice tolerance): rated three to four weeks after treatment; for herbicidal effect rating ORYSAT: rated 3-4 weeks after treatment; on herbicidal effect rating ORYSAT: meaning of each grade not given here
# Sagittaria pygmaea, L. = experiment: Preemergence weed control under flooded paddy conditions, SAGPY (Arrowhead (Pygmaea)); assay type: in vivo; conditions: preemergence, flooded paddy; on herbicidal effect rating, SAGPY: meaning of each grade not given here
# [2] = test system: Monochoria vaginalis, Presl.; experiment: Preemergence weed control under flooded paddy conditions, MOOVA (Monochoria); assay type: in vivo; conditions: preemergence, flooded paddy; on herbicidal effect rating, MOOVA: meaning of each grade not given here
# Cyperus iria = experiment: Preemergence weed control under flooded paddy conditions, CYPIR (Rice Flatsedge); assay type: in vivo; conditions: preemergence, flooded paddy; on herbicidal effect rating, CYPIR: meaning of each grade not given here
# [3] = test system: Cyperus serotinus, Rottb.; experiment: Preemergence weed control under flooded paddy conditions, CYPSE (Flatsedge); assay type: in vivo; conditions: preemergence; on herbicidal effect rating, CYPSE: meaning of each grade not given here
# [4] = test system: Echinochloa oryzoides (Ard.) Fritsch.; experiment: Preemergence weed control under flooded paddy conditions, ECHORC (Watergrass (Calif.)); assay type: in vivo; conditions: preemergence, flooded paddy; on herbicidal effect rating, ECHORC: meaning of each grade not given here
# [5] = Rate 0.0320 kg/ha, rated three to four weeks after treatment
# [6] = Rate 0.0620 kg/ha, rated three to four weeks after treatment
# [7] = Rate 0.1250 kg/ha, rated three to four weeks after treatment
# [8] = Rate 0.2500 kg/ha, rated three to four weeks after treatment
# [9] = Rate 0.5000 kg/ha, rated three to four weeks after treatment
# [10] = 0.0313 kg/ha, rated three to four weeks after treatment
# [11] = 0.0625 kg/ha, rated three to four weeks after treatment
# [12] = 0.1250 kg/ha, rated three to four weeks after treatment
# [13] = 0.2500 kg/ha, rated three to four weeks after treatment
# [14] = Rate 0.0620 kg/ha, rated 3-4 weeks after treatment
# [15] = Rate 0.1250 kg/ha, rated 3-4 weeks after treatment
# [16] = Rate 0.2500 kg/ha, rated 3-4 weeks after treatment
# [17] = Rate 0.5000 kg/ha, rated 3-4 weeks after treatment
compound,measurement,setting,value
"Cn1c(C(F)(F)F)cc(=O)n(-c2ccc3snc(-c4ccc(OCC(=O)O)cc4)c3c2)c1=O [Example 281, Acetic acid, {p-{5-[3,6-dihydro-3-methyl-2,6-dioxo-4-(trifluoromethyl)-1(2H)-pyrimidinyl]-1,2-benzisothiazol-3-yl}phenoxy}-]",ORYSAT herbicidal effect rating,[1]; Rate 0.0320 kg/ha,0.0
same,ORYSAT herbicidal effect rating,[1]; Rate 0.0620 kg/ha,2.0
same,ORYSAT herbicidal effect rating,[1]; Rate 0.1250 kg/ha,4.0
same,ORYSAT herbicidal effect rating,[1]; Rate 0.2500 kg/ha,6.0
same,ORYSAT herbicidal effect rating,[1]; Rate 0.5000 kg/ha,4.0
same,SAGPY herbicidal effect rating,"Sagittaria pygmaea, L.; [5]",0.0
same,SAGPY herbicidal effect rating,"Sagittaria pygmaea, L.; [6]",0.0
same,SAGPY herbicidal effect rating,"Sagittaria pygmaea, L.; [7]",2.0
same,SAGPY herbicidal effect rating,"Sagittaria pygmaea, L.; [8]",8.0
same,SAGPY herbicidal effect rating,"Sagittaria pygmaea, L.; [9]",9.0
same,MOOVA herbicidal effect rating,[2]; [5],9.0
same,MOOVA herbicidal effect rating,[2]; [6],9.0
same,MOOVA herbicidal effect rating,[2]; [7],9.0
same,MOOVA herbicidal effect rating,[2]; [8],9.0
same,MOOVA herbicidal effect rating,[2]; [9],9.0
same,CYPIR herbicidal effect rating,Cyperus iria; [5],4.0
same,CYPIR herbicidal effect rating,Cyperus iria; [6],8.0
same,CYPIR herbicidal effect rating,Cyperus iria; [7],9.0
same,CYPIR herbicidal effect rating,Cyperus iria; [8],9.0
same,CYPIR herbicidal effect rating,Cyperus iria; [9],9.0
same,CYPSE herbicidal effect rating,[3]; [5],9.0
same,CYPSE herbicidal effect rating,[3]; [6],9.0
same,CYPSE herbicidal effect rating,[3]; [7],9.0
same,CYPSE herbicidal effect rating,[3]; [8],9.0
same,CYPSE herbicidal effect rating,[3]; [9],9.0
same,ECHORC herbicidal effect rating,[4]; [5],0.0
same,ECHORC herbicidal effect rating,[4]; [6],5.9
same,ECHORC herbicidal effect rating,[4]; [7],7.1
same,ECHORC herbicidal effect rating,[4]; [8],9.0
same,ECHORC herbicidal effect rating,[4]; [9],7.0
"Cn1c(C(F)(F)F)cc(=O)n(-c2ccc3snc(C=C(Cl)Cl)c3c2)c1=O [Example 287, 2,4(1H,3H)-Pyrimidinedione, 3-[3-(2,2-dichlorovinyl)-1,2-benzisothiazol-5-yl]-1-methyl-6-(trifluoromethyl)-]",ORYSAT herbicidal effect rating,[1]; Rate 0.0320 kg/ha,0.0
same,ORYSAT herbicidal effect rating,[1]; Rate 0.0620 kg/ha,3.0
same,ORYSAT herbicidal effect rating,[1]; Rate 0.1250 kg/ha,3.0
same,ORYSAT herbicidal effect rating,[1]; Rate 0.2500 kg/ha,5.0
same,SAGPY herbicidal effect rating,"Sagittaria pygmaea, L.; [5]",0.0
same,SAGPY herbicidal effect rating,"Sagittaria pygmaea, L.; [6]",0.0
same,SAGPY herbicidal effect rating,"Sagittaria pygmaea, L.; [7]",0.0
same,SAGPY herbicidal effect rating,"Sagittaria pygmaea, L.; [8]",0.0
same,MOOVA herbicidal effect rating,[2]; [5],9.0
same,MOOVA herbicidal effect rating,[2]; [6],9.0
same,MOOVA herbicidal effect rating,[2]; [7],9.0
same,MOOVA herbicidal effect rating,[2]; [8],9.0
same,CYPIR herbicidal effect rating,Cyperus iria; [5],0.0
same,CYPIR herbicidal effect rating,Cyperus iria; [6],9.0
same,CYPIR herbicidal effect rating,Cyperus iria; [7],9.0
same,CYPIR herbicidal effect rating,Cyperus iria; [8],9.0
same,CYPSE herbicidal effect rating,[3]; [5],0.0
same,CYPSE herbicidal effect rating,[3]; [6],0.0
same,CYPSE herbicidal effect rating,[3]; [7],0.0
same,CYPSE herbicidal effect rating,[3]; [8],4.0
same,ECHORC herbicidal effect rating,[4]; [5],0.0
same,ECHORC herbicidal effect rating,[4]; [6],2.0
same,ECHORC herbicidal effect rating,[4]; [7],5.0
same,ECHORC herbicidal effect rating,[4]; [8],7.0
"C=Cc1nsc2ccc(-n3c(=O)cc(C(F)(F)F)n(C)c3=O)cc12 [Example 276, 2,4(1H,3H)-Pyrimidinedione, 1-methyl-6-(trifluoromethyl)-3-(3-vinyl-1,2-benzisothiazol-5-yl)-]",ORYSAT herbicidal effect rating,[1]; Rate 0.0320 kg/ha,4.0
same,ORYSAT herbicidal effect rating,[1]; Rate 0.0620 kg/ha,5.0
same,ORYSAT herbicidal effect rating,[1]; Rate 0.1250 kg/ha,6.0
same,ORYSAT herbicidal effect rating,[1]; Rate 0.2500 kg/ha,7.0
same,ORYSAT herbicidal effect rating,[1]; Rate 0.5000 kg/ha,9.0
same,SAGPY herbicidal effect rating,"Sagittaria pygmaea, L.; [5]",8.0
same,SAGPY herbicidal effect rating,"Sagittaria pygmaea, L.; [6]",9.0
same,SAGPY herbicidal effect rating,"Sagittaria pygmaea, L.; [7]",9.0
same,SAGPY herbicidal effect rating,"Sagittaria pygmaea, L.; [8]",9.0
same,SAGPY herbicidal effect rating,"Sagittaria pygmaea, L.; [9]",9.0
same,MOOVA herbicidal effect rating,[2]; [5],9.0
same,MOOVA herbicidal effect rating,[2]; [6],9.0
same,MOOVA herbicidal effect rating,[2]; [7],9.0
same,MOOVA herbicidal effect rating,[2]; [8],9.0
same,MOOVA herbicidal effect rating,[2]; [9],9.0
same,CYPIR herbicidal effect rating,Cyperus iria; [5],8.0
same,CYPIR herbicidal effect rating,Cyperus iria; [6],9.0
same,CYPIR herbicidal effect rating,Cyperus iria; [7],9.0
same,CYPIR herbicidal effect rating,Cyperus iria; [8],9.0
same,CYPIR herbicidal effect rating,Cyperus iria; [9],9.0
same,CYPSE herbicidal effect rating,[3]; [5],2.0
same,CYPSE herbicidal effect rating,[3]; [6],2.0
same,CYPSE herbicidal effect rating,[3]; [7],8.0
same,CYPSE herbicidal effect rating,[3]; [8],7.0
same,CYPSE herbicidal effect rating,[3]; [9],7.0
same,ECHORC herbicidal effect rating,[4]; [5],4.0
same,ECHORC herbicidal effect rating,[4]; [6],7.7
same,ECHORC herbicidal effect rating,[4]; [7],7.9
same,ECHORC herbicidal effect rating,[4]; [8],9.0
same,ECHORC herbicidal effect rating,[4]; [9],9.0
"COC(=O)C(C)Oc1ccc(-c2nsc3ccc(-n4c(=O)cc(C(F)(F)F)n(C)c4=O)cc23)cc1 (centres unmarked) [Example 258, Propionic acid, 2-{p-{5-[3,6-dihydro-3-methyl-2,6-dioxo-4-(trifluoromethyl)-1(2H)-pyrimidinyl]-1,2-benzisothiazol-3-yl}phenoxy}-, methyl ester]",ORYSAT herbicidal effect rating,[1]; Rate 0.0320 kg/ha,2.0
same,ORYSAT herbicidal effect rating,[1]; Rate 0.0620 kg/ha,2.0
same,ORYSAT herbicidal effect rating,[1]; Rate 0.1250 kg/ha,3.0
same,ORYSAT herbicidal effect rating,[1]; Rate 0.2500 kg/ha,4.0
same,SAGPY herbicidal effect rating,"Sagittaria pygmaea, L.; [5]",0.0
same,SAGPY herbicidal effect rating,"Sagittaria pygmaea, L.; [6]",0.0
same,SAGPY herbicidal effect rating,"Sagittaria pygmaea, L.; [7]",0.0
same,SAGPY herbicidal effect rating,"Sagittaria pygmaea, L.; [8]",0.0
same,MOOVA herbicidal effect rating,[2]; [5],9.0
same,MOOVA herbicidal effect rating,[2]; [6],9.0
same,MOOVA herbicidal effect rating,[2]; [7],9.0
same,MOOVA herbicidal effect rating,[2]; [8],9.0
same,CYPIR herbicidal effect rating,Cyperus iria; [5],0.0
same,CYPIR herbicidal effect rating,Cyperus iria; [6],2.0
same,CYPIR herbicidal effect rating,Cyperus iria; [7],7.0
same,CYPIR herbicidal effect rating,Cyperus iria; [8],8.0
same,CYPSE herbicidal effect rating,[3]; [5],0.0
same,CYPSE herbicidal effect rating,[3]; [6],0.0
same,CYPSE herbicidal effect rating,[3]; [7],0.0
same,ECHORC herbicidal effect rating,[4]; [5],0.0
same,ECHORC herbicidal effect rating,[4]; [6],0.0
same,ECHORC herbicidal effect rating,[4]; [7],0.0
same,ECHORC herbicidal effect rating,[4]; [8],0.0
"COC(=O)C(C)Oc1c(C)cc(C)cc1-c1nsc2ccc(-n3c(=O)cc(C(F)(F)F)n(C)c3=O)cc12 (centres unmarked) [Example 27, Methyl 2-{{6-{5-[3,6-dihydro-3-methyl-2,6-dioxo-4-(trifluoromethyl)-1(2H)-pyrimidinyl]-1,2-benzisothiazol-3-yl}-2,4-xylyl}oxy}propionate]","herbicidal effect rating, ORYSAT (rice tolerance)",[1]; 0.0313 kg/ha,2.0
same,"herbicidal effect rating, ORYSAT (rice tolerance)",[1]; 0.0625 kg/ha,3.0
same,"herbicidal effect rating, ORYSAT (rice tolerance)",[1]; 0.1250 kg/ha,5.0
same,"herbicidal effect rating, ORYSAT (rice tolerance)",[1]; 0.2500 kg/ha,6.0
same,"herbicidal effect rating, SAGPY","Sagittaria pygmaea, L.; [10]",0.0
same,"herbicidal effect rating, SAGPY","Sagittaria pygmaea, L.; [11]",0.0
same,"herbicidal effect rating, SAGPY","Sagittaria pygmaea, L.; [12]",2.0
same,"herbicidal effect rating, SAGPY","Sagittaria pygmaea, L.; [13]",4.0
same,"herbicidal effect rating, MOOVA",[2]; [10],8.0
same,"herbicidal effect rating, MOOVA",[2]; [11],9.0
same,"herbicidal effect rating, MOOVA",[2]; [12],9.0
same,"herbicidal effect rating, MOOVA",[2]; [13],9.0
same,"herbicidal effect rating, CYPIR",Cyperus iria; [10],2.0
same,"herbicidal effect rating, CYPIR",Cyperus iria; [11],4.0
same,"herbicidal effect rating, CYPIR",Cyperus iria; [12],6.0
same,"herbicidal effect rating, CYPIR",Cyperus iria; [13],9.0
same,"herbicidal effect rating, CYPSE",[3]; [10],0.0
same,"herbicidal effect rating, CYPSE",[3]; [11],0.0
same,"herbicidal effect rating, CYPSE",[3]; [12],0.0
same,"herbicidal effect rating, CYPSE",[3]; [13],2.0
same,"herbicidal effect rating, ECHORC",[4]; [10],6.0
same,"herbicidal effect rating, ECHORC",[4]; [11],7.0
same,"herbicidal effect rating, ECHORC",[4]; [12],9.0
same,"herbicidal effect rating, ECHORC",[4]; [13],9.0
"CC(Oc1ccccc1-c1nsc2ccc(-n3c(=O)cc(C(F)(F)F)n(C)c3=O)cc12)C(=O)N(C)C (centres unmarked) [Example 551, Propionamide, 2-{o-{5-[3,6-dihydro-3-methyl-2,6-dioxo-4-(trifluoromethyl)-1(2H)-pyrimidinyl]-1,2-benzisothiazol-3-yl}phenoxy}-N,N-dimethyl-]",herbicidal effect rating ORYSAT,[1]; Rate 0.0620 kg/ha,0.0
same,herbicidal effect rating ORYSAT,[1]; Rate 0.1250 kg/ha,3.0
same,herbicidal effect rating ORYSAT,[1]; Rate 0.2500 kg/ha,3.0
same,herbicidal effect rating ORYSAT,[1]; Rate 0.5000 kg/ha,4.0
same,"herbicidal effect rating, SAGPY","Sagittaria pygmaea, L.; [14]",0.0
same,"herbicidal effect rating, SAGPY","Sagittaria pygmaea, L.; [15]",0.0
same,"herbicidal effect rating, SAGPY","Sagittaria pygmaea, L.; [16]",0.0
same,"herbicidal effect rating, SAGPY","Sagittaria pygmaea, L.; [17]",2.0
same,"herbicidal effect rating, MOOVA",[2]; [14],0.0
same,"herbicidal effect rating, MOOVA",[2]; [15],9.0
same,"herbicidal effect rating, MOOVA",[2]; [16],9.0
same,"herbicidal effect rating, MOOVA",[2]; [17],9.0
same,"herbicidal effect rating, CYPIR",Cyperus iria; [14],0.0
same,"herbicidal effect rating, CYPIR",Cyperus iria; [15],0.0
same,"herbicidal effect rating, CYPIR",Cyperus iria; [16],2.0
same,"herbicidal effect rating, CYPIR",Cyperus iria; [17],9.0
same,"herbicidal effect rating, CYPSE",[3]; [14],0.0
same,"herbicidal effect rating, CYPSE",[3]; [15],0.0
same,"herbicidal effect rating, CYPSE",[3]; [16],0.0
same,"herbicidal effect rating, CYPSE",[3]; [17],0.0
same,"herbicidal effect rating, ECHORC",[4]; [14],4.0
same,"herbicidal effect rating, ECHORC",[4]; [15],7.0
same,"herbicidal effect rating, ECHORC",[4]; [16],7.0
same,"herbicidal effect rating, ECHORC",[4]; [17],9.0
